# Assay results reported in patent US20240108557A1, “TOPICAL COMPOSITION USEFUL FOR THE DAILY CARE OF ACNE-PRONE SKIN” (Pierre Fabre Dermo-Cosmetique, priority 2021, published 2024).
# System: Stratum corneum
# Experiment: AFM elastic modulus of Stratum corneum in skin explants (keratolytic effect)
# Set-up: species or system human
# Settings: three topical applications, succinic acid 0.6 wt %, lactic acid 0.36 wt %, alone or combined (ratio 1.67)
# Procedure: Keratolytic effect was assessed by observing the skin biomechanical properties modulation (skin stiffness modulation) induced by the tested agents using Atomic Force Microscopy (AFM) in skin explants. • 1 explant by donor and treatment • 3 distinct areas were measured by explant • A minimum of 12 measures by aera
# Skin punchs of 1.2 cm were made from breast skin of women between 35 and 43 years old. […] First and second application during 1 hour, and the third-one during 3 hours. […] Mechanical properties of skin explants cryosections have been assessed, at Stratum corneum and epidermis areas, by AFM measurements.
# AFM indentation experiments were carried out with a Resolve Bioscope (Bruker Nano Surface, Santa Barbara, CA) that was mounted on an inverted optical DM18 (Leica) and a top view Bruker. All measurements of skin stiffness were performed using cantilevers with conical tips. The cantilever moved with the relief of the skin surface. This deformation was quantified by the deflection of the laser beam who are correlated with biomechanical parameters of skin surface samples. Quantitative measure of elastic modulus was used to assess Stratum corneum or epidermis cell-cell junctions stiffness after treatment.
row,Structure (SMILES),inhibition of elastic modulus of Stratum corneum (stiffness reduction) compared to untreated control
1,CC(O)C(=O)O (centres unmarked) [lactic acid],did not show any significant effect
2,O=C(O)CCC(=O)O [succinic acid],did not show any significant effect
